Results on eight compounds are retold here after ChEMBL document CHEMBL5465560, “Selectivity Literature for EUbOPEN Chemogenomic Library” (2024).

SMILES strings stand for the structures.

Assay [1] deals with T1, Fibroblast growth factor receptor 1 (Homo sapiens, UniProt P11362). Put plainly: Selectivity interaction (KinomeScan (DiscoverX)) EUB0000607a FGFR1. The settings on record: at 10 µM.
Assay [2] addresses NT-3 growth factor receptor (Homo sapiens, UniProt Q16288). Put plainly: Selectivity interaction (SelectScreen profiling (Invitrogen)) EUB0000607a NTRK3. Particulars: at 2 µM.
Assay [3] deals with T2, Protein arginine N-methyltransferase 7 (Homo sapiens) (UniProt Q9NVM4).
T2 sequence (whole entry): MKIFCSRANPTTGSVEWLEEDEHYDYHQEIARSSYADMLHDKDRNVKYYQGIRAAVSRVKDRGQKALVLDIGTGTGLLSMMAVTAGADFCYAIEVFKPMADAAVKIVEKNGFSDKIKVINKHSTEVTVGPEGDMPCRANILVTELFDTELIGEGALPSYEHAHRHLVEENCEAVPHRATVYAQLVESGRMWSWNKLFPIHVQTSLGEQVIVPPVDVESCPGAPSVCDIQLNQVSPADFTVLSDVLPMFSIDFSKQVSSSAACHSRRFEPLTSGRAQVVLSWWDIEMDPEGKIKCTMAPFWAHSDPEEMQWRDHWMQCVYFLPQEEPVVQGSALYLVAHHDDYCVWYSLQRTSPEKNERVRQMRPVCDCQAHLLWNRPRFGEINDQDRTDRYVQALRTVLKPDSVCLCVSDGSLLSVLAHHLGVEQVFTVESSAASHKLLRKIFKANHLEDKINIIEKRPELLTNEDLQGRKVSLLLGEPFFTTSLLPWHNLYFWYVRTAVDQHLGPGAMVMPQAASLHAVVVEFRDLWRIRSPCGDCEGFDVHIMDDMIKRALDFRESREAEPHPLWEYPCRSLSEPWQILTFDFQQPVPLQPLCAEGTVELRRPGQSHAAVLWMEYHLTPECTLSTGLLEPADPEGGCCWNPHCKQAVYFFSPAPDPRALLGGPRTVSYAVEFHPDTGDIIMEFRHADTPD
The settings on record: at 1 µM.

Assay [4] addresses Serine/threonine-protein kinase NIM1 (Homo sapiens, UniProt Q8IY84). Put plainly: Selectivity interaction (KinomeScan (DiscoverX)) EUB0000229b NIM1K. Particulars: at 10 µM.
In assay [5] the target is T3, Calcium/calmodulin-dependent protein kinase type IV (Homo sapiens) (UniProt Q16566).
T3 sequence (whole entry): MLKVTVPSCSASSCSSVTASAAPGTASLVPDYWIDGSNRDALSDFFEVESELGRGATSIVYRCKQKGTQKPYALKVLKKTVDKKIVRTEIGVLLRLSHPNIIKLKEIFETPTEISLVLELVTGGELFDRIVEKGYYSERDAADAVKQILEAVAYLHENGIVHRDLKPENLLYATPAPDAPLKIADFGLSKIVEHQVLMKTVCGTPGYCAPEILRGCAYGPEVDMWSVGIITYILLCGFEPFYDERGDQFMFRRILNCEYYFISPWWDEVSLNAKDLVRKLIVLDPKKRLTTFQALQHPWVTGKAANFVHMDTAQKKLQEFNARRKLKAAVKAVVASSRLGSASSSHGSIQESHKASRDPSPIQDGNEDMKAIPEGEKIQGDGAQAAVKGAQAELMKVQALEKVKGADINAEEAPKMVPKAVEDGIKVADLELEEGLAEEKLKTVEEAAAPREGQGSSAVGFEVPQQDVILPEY
Put plainly: Selectivity interaction (KinomeScan (DiscoverX)) EUB0001079a CAMK4. Particulars: at 1 µM.

Assay [6] has as its target Serine/threonine-protein kinase PLK1 (Homo sapiens, UniProt P53350). Put plainly: Selectivity interaction (KinomeScan (DiscoverX)) EUB0001079a PLK1. Particulars: at 1 µM.
Assay [7] addresses T4, cAMP-dependent protein kinase catalytic subunit PRKX (Homo sapiens) (UniProt P51817).
T4 sequence (whole entry): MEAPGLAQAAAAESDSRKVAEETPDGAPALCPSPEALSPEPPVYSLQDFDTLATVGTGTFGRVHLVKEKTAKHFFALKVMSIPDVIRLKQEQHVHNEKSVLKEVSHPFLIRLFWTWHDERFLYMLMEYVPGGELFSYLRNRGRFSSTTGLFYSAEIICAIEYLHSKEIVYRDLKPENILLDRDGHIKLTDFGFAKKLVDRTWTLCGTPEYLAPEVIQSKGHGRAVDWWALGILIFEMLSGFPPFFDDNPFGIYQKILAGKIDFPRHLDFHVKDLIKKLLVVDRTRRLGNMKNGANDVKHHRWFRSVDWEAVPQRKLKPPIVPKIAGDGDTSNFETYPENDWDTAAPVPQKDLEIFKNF
Put plainly: Selectivity interaction (KinomeScan (DiscoverX)) EUB0001079a PRKX. Particulars: at 1 µM.

The target in assay [8] is T1, Fibroblast growth factor receptor 1. Put plainly: Selectivity interaction (KinaseProfiler screening (Millipore)) EUB0000601a FGFR1. The settings on record: at 3 µM.
Assay [9] addresses Mitogen-activated protein kinase 14 (Homo sapiens, UniProt Q16539).
Assay [10] has as its target Mitogen-activated protein kinase kinase kinase 11 (Homo sapiens) (UniProt Q16584). Put plainly: Selectivity interaction (KinomeScan (DiscoverX)) EUB0001049a MAP3K11. The settings on record: at 1 µM.
Assay [11] deals with T5, N-lysine methyltransferase KMT5A (Homo sapiens) (UniProt Q9NQR1).
T5 sequence (whole entry): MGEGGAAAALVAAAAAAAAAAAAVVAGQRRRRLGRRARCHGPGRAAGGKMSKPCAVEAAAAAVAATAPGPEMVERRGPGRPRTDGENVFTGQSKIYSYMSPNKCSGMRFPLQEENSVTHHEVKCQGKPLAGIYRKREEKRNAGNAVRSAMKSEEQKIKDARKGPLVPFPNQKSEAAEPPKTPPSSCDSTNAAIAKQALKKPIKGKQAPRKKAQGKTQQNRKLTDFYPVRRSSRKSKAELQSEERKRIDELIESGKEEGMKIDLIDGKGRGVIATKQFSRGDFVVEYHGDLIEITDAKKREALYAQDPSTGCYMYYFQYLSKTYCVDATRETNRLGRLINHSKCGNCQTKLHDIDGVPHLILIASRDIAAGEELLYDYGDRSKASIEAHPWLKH
Put plainly: Selectivity interaction (Methyltransferase screen (radiometric assays, panel of 8 PRMTs, 21 protein lysine methyltransferases, 3 DNA methyltransferases, and one RNA methyltransferase)) EUB0000272b SETD8.

T1 sequence (P11362 22-822 limits assumed): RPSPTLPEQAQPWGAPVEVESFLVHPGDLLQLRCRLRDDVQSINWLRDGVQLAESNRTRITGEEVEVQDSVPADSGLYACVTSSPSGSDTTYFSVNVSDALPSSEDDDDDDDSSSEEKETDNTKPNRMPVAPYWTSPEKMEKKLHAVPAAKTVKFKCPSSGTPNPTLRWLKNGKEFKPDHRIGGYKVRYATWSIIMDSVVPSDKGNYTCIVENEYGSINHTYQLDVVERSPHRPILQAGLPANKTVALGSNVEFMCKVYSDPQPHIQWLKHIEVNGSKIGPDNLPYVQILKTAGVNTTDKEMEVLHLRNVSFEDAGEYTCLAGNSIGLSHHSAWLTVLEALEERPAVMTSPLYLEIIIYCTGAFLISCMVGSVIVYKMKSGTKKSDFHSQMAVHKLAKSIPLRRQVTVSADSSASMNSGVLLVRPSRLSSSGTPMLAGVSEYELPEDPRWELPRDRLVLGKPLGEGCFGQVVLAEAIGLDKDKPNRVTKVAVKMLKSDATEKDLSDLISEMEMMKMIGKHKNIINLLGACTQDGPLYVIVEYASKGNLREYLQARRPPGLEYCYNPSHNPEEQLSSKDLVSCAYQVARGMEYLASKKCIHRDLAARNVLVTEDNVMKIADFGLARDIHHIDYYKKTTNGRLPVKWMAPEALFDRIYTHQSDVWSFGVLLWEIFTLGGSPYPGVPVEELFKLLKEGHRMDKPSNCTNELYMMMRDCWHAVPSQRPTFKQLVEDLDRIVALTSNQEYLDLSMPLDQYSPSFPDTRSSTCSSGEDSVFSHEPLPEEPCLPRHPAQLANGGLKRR
Chain of NT-3 growth factor receptor (Q16288 32-839 limits assumed): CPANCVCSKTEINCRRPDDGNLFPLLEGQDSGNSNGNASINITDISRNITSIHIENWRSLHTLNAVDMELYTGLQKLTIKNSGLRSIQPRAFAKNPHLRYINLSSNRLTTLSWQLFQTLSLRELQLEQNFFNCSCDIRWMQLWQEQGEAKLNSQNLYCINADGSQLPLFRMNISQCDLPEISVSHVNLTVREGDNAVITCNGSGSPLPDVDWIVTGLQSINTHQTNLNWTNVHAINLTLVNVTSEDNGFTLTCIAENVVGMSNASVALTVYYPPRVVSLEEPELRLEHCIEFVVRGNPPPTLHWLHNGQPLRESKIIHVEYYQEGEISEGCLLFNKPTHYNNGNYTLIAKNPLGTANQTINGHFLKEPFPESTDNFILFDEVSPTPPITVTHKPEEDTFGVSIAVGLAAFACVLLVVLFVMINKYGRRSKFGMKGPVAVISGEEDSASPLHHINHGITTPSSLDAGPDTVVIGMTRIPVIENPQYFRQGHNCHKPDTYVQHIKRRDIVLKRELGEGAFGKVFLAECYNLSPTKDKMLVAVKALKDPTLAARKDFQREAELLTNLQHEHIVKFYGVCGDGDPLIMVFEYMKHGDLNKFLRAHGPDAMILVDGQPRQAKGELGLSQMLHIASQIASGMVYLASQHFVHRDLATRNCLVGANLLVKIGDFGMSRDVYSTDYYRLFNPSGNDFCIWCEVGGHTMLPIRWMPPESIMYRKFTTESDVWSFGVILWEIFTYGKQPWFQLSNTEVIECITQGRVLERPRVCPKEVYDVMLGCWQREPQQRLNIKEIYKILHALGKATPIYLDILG
Chain of Serine/threonine-protein kinase NIM1 (Q8IY84 whole entry): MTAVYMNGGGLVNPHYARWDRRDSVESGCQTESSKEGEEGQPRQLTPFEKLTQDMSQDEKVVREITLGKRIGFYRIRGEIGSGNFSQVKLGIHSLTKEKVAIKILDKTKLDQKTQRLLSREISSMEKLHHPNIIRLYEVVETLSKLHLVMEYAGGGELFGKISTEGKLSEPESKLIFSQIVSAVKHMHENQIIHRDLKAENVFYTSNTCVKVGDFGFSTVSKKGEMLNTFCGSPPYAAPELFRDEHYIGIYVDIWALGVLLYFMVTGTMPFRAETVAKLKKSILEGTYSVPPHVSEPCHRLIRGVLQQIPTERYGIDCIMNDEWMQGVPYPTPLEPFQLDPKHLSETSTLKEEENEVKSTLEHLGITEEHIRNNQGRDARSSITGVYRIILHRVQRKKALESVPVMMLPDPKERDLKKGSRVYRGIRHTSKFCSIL
Chain of Serine/threonine-protein kinase PLK1 (P53350 whole entry): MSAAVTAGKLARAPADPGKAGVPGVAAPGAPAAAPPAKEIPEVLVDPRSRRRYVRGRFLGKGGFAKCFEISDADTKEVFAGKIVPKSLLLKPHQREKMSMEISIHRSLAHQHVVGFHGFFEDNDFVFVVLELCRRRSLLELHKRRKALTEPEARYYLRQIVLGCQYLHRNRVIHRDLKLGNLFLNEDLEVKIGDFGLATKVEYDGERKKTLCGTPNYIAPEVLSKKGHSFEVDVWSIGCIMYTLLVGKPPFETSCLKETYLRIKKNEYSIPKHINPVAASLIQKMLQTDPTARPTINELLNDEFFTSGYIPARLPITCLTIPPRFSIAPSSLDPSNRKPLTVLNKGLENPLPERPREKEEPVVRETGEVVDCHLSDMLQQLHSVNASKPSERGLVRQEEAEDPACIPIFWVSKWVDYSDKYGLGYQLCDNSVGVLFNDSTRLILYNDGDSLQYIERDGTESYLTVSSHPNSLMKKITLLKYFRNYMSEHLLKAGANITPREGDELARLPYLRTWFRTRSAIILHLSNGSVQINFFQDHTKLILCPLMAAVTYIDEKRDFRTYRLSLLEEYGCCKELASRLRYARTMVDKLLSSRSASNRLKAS
Chain of Mitogen-activated protein kinase 14 (Q16539 whole entry): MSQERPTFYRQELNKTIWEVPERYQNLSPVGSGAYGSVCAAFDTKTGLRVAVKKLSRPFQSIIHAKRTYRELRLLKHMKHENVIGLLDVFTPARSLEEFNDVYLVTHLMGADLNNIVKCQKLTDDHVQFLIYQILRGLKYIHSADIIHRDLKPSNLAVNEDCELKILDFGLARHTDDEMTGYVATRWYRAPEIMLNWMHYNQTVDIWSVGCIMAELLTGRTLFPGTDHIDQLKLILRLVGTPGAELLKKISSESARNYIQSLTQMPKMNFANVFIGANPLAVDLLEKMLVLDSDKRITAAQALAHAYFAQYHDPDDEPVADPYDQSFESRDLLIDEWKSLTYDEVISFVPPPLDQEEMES
Chain of Mitogen-activated protein kinase kinase kinase 11 (Homo sapiens) (Q16584 whole entry, looked up): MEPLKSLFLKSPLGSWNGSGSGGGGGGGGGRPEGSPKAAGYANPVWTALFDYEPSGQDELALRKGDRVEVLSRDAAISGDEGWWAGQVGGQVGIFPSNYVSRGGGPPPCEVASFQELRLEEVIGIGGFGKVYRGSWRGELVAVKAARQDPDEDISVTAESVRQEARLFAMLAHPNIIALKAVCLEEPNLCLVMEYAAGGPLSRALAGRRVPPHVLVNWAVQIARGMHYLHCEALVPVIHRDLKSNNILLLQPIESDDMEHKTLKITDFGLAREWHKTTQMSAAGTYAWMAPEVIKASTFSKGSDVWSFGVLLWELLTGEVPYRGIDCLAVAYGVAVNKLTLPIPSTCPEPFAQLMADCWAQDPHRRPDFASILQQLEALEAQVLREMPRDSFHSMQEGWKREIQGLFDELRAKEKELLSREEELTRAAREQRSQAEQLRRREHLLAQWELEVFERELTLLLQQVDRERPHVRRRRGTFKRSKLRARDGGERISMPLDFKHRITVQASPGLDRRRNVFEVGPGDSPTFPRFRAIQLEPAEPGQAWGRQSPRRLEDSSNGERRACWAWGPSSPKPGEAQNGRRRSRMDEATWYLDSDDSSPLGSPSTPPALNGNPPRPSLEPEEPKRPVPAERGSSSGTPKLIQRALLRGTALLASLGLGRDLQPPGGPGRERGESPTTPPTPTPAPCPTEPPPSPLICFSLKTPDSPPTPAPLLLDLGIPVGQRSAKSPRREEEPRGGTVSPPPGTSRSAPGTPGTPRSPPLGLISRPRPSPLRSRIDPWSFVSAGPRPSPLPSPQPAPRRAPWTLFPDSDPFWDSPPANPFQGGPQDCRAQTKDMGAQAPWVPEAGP

Consider `CNC(=O)Nc1ccc(-c2nc(N3CC4CCC(C3)O4)c3cnn(C4CCC5(CC4)OCCO5)c3n2)cc1`, for which the % of control in assay [1] came out at 100%. In [2], this compound gave a % of inhibition of 5%.

In assay [3], `CNCCN1CCC(c2cc(CN(C)C(=O)c3cccc(Oc4ccccc4)c3)ccn2)CC1` gave a % activity of more than 90%.

As to `COc1cc(N(C)c2ccnc3ccc(C(F)(F)F)cc23)cc(OC)c1OC`, the % binding in assay [4] is 100%.

For the compound `Nc1cnc(N2CCc3cc(S(=O)(=O)Nc4c(F)cc(Cl)cc4F)cc(N4CCCC4=O)c32)nc1` [TP-020n], the results for the % of control in assay [5], in [6] and in [7] were 96%, 100% and 99%, respectively.

Turning to `CCc1cc(Nc2nccc(-c3c(-c4ccc(OC)c(C(=O)Nc5c(F)cccc5F)c4)nc4ccccn34)n2)c(OC)cc1N1CCC(N2CCN(S(C)(=O)=O)CC2)CC1`, in assay [8], the % of inhibition amounted to 68%.

As for `CCc1cccc(CC)c1NC(=O)c1nn(C)c2c1CCc1cnc(Nc3ccc(C(=O)NC4CCN(C)CC4)cc3OC(F)(F)F)nc1-2`, the IC50 in assay [9] is more than 10 µM.

In turn, `COc1cc(Nc2nc(C)cc(-c3cnn4nc(OC)ccc34)n2)cc(C(F)(F)F)c1` returned a % of control in [10] of 79%.

In the case of `Cc1cc(C)cc([C@H]2c3cc(C)ccc3NC(=O)CN2C(=O)c2ccc(Br)s2)c1`, the figures for the % of activity in assay [11] (at 1 µM) and in assay [11] (at 10 µM) were 98% and 102%, respectively.
